Type in all cases: functional
Assay [1] has as its system Providencia stuartii. Kind of assay: Compound was tested in vitro for antimicrobial activity against Providencia stuartii T90.
For assay [2], the system named is Pseudomonas aeruginosa. Kind of assay: Compound was tested in vitro for antimicrobial activity against Pseudomonas aeruginosa NCTC 10662.
In assay [3] the test system is Pseudomonas aeruginosa. Kind of assay: Compound was tested in vitro for antimicrobial activity against Pseudomonas aeruginosa Dagleish: beta-lactamase producer.
In assay [4] the test system is Pseudomonas aeruginosa. Kind of assay: Compound was tested in vitro for antimicrobial activity against Pseudomonas aeruginosa K799.
The test system of assay [5] is Proteus mirabilis. Briefly: Compound was tested in vitro for antimicrobial activity against Proteus mirabilis 977.
Assay [6] deals with Escherichia coli. Kind of assay: Compound was tested in vitro for antimicrobial activity against Escherichia coli DC2: cell wall deficient mutant strain.
In assay [7] the test system is Escherichia coli. Briefly: Compound was tested in vitro for antimicrobial activity against Escherichia coli NCTC 10418.
The subject of assay [8] is Escherichia coli. Kind of assay: Compound was tested in vitro for antimicrobial activity against Escherichia coli DC0.

One may read the MIC as the least concentration at which growth counts as inhibited. Read a low MIC as inhibition by little substance. With `C[C@@H](O)[C@H]1C(=O)N2C(C(=O)[O-])=C(CO)S[C@H]12.[Na+]`, the MIC in assay [1] was determined as 16 µg/mL; in assay [2], 64 µg/mL; in assay [3] it was 64 µg/mL; in assay [4] it was 64 µg/mL; in assay [5] it was 16 µg/mL; in assay [6], 8 µg/mL. The MIC in assay [7] and in assay [8] was 8 µg/mL in each case.
Take `CC(=O)Oc1cccc(C(=O)OCC2=C(C(=O)[O-])N3C(=O)C[C@H]3S2)c1OC(C)=O.[Na+]`: the MIC is above 32 µg/mL in assay [1]; 8 µg/mL in assay [2]; above 32 µg/mL in assay [3]; above 32 µg/mL in assay [4]; 16 µg/mL in assay [5]; 0.5 µg/mL in assay [6]. Also, the MIC in assay [7] is 8 µg/mL; in assay [8], above 32 µg/mL.
For `O=C([O-])C1=C(CO)S[C@@H]2CC(=O)N12.[Na+]`, the MIC in assay [1] is 32 µg/mL; in assay [2] it was above 64 µg/mL; in assay [3], above 64 µg/mL; in assay [4], above 64 µg/mL; in assay [5], 32 µg/mL; in assay [6] it was 32 µg/mL. Further, the MIC in assay [7] turned out to be 16 µg/mL; in assay [8], 32 µg/mL.
Consider `C[C@@H](O)[C@H]1C(=O)N2C(C(=O)[O-])=C(COC(=O)c3ccc(O)c(O)c3)S[C@H]12.[Na+]`, for which the MIC in assay [1] is 32 µg/mL; in assay [2], 32 µg/mL; in assay [3], above 64 µg/mL; in assay [4], above 64 µg/mL; in assay [5], 32 µg/mL; in assay [6], 0.12 µg/mL. In addition, the MIC in assay [7] was 0.5 µg/mL; in assay [8], 1 µg/mL.
